For 16 compounds, IC50 results are on record in patent US20250215029A1 (Recludix Pharma, Inc., priority 2022, published 2025).

The target of experiment [1] is T1, Recombinant STAT3 protein (STAT3 (G127-I722)) (Homo sapiens, UniProt P40763).
T1 construct: Recombinant STAT3 protein (STAT3 (G127-I722))
The experiment in a line: STAT3 Fluorescence Polarization (FP) Assay. It counts as binding. The conditions noted are these: probe 5-FAM-GpYLPQTV-NH2 2 nM, 45-minute incubation. The procedure, abridged: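 In this competition FP format, STAT3 residues G127-I722 (25 nM) and 2 nM 5-FAM-GpYLPQTV-NH2 met test compounds for 45 min at room temperature. IC50 values result from fitting mP signal against log concentration by nonlinear regression.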
For orientation: Fluorescence polarisation rises when a labelled molecule tumbles more slowly, as on binding a larger partner.

Experiment [2] deals with T2, Recombinant STAT6 protein (STAT6 (W123-T658)) (Homo sapiens, UniProt P42226).
T2 construct: Recombinant STAT6 protein (STAT6 (W123-T658))
T2 sequence (P42226 123-658): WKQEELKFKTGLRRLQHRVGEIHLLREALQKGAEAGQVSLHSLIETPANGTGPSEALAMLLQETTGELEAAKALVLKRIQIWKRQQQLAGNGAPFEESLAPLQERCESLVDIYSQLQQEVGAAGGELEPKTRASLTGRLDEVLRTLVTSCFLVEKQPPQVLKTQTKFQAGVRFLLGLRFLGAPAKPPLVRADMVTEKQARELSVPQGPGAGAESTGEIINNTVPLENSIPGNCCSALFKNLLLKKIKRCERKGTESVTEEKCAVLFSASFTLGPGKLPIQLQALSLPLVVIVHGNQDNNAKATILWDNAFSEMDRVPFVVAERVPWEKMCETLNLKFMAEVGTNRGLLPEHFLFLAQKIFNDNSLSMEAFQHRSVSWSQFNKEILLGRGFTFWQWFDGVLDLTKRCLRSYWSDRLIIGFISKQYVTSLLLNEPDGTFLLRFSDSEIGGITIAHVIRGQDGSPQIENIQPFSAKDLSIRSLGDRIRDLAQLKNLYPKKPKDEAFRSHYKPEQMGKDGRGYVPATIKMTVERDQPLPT
Briefly: STAT6 Fluorescence Polarization (FP) Assay. The conditions noted are these: probe 5-FAM-Ap[…]-NH2 2 nM, 45-minute incubation. Format: binding. The procedure, abridged:
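Protein-probe mix (250 nM STAT6 W123-T658, 2 nM 5-FAM-pTyr peptide) in 10 mM HEPES pH 7.4, 50 mM NaCl, 1 mM EDTA, 0.05% Tween 20, 2 mM DTT; added to compound dilution series, 1% DMSO final; 45 min RT; FP read; IC50 via nonlinear regression.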

The mark [3] stands for this setting: STAT3 (G127-I722) 25 nM, read-out: STAT3 (FP assay IC50 class).
[4] abbreviates: STAT6 (W123-T658) 250 nM, read-out: STAT6 (FP assay IC50 class).
Setting [5] is: STAT3 25 nM, read-out: STAT3 (FP assay IC50).
Where [6] appears, read: STAT6 250 nM, read-out: STAT6 (FP assay IC50).

Structures are written as SMILES. Read-outs that look alike come from different tables or passages of the source.

T1 sequence (P40763 127-722): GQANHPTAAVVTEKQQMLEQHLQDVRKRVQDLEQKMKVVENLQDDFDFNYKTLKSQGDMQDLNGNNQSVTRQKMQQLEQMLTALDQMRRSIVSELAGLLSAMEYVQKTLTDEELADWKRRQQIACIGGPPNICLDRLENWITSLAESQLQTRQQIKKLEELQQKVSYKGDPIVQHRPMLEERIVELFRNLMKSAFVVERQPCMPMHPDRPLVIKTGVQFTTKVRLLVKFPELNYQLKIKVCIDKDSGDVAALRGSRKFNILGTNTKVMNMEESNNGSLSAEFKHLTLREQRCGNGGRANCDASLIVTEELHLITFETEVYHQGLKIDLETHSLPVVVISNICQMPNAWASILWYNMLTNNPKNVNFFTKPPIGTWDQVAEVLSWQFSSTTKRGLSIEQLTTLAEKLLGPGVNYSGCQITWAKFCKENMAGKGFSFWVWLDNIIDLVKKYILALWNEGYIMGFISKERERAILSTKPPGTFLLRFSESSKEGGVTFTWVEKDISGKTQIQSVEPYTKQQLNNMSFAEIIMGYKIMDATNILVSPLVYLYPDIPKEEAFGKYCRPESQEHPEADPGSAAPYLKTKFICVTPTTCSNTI

Regarding `CC1(C)CC(c2ccccc2)CN1C(=O)[C@@H]1CC[C@@H]2CCCC[C@H](NC(=O)c3cc4cc(C(F)(F)P(=O)(O)O)ccc4s3)C(=O)N21` (stereo partly drawn) [Compound 813, ((2-(((3S,6S,10aS)-3-(2,2-dimethyl-4-phenylpyrrolidine-1-carbonyl)-5-oxodecahydropyrrolo [1,2-a]azocin-6-yl)carbamoyl)benzo [b]thiophen-5-yl)difluoromethyl) phosphonic acid], the IC50 in experiment [1] (setting [3]) was 1 to 10 µM; in experiment [2] (setting [4]), 0.3 to 3 µM.

As to `N#C[C@@H]1CN(C(=O)[C@@H]2CC[C@@H]3CCCCC[C@H](NC(=O)c4cc5cc(C(F)(F)P(=O)(O)O)ccc5s4)C(=O)N32)C[C@H]1c1ccccc1` (mixture of isomers) [Compound 74, ((2-(((3S,6S,11aS)-3-((rel- trans)-3-cyano-4-phenylpyrrolidine-1-carbonyl)-5-oxodecahydro-1H-pyrrolo[1,2-a]azonin-6-yl)carbamoyl)benzo[b]thiophen-5-yl)difluoromethyl) phosphonic acid], the IC50 in experiment [1] (setting [5]) is 1 to 10 µM; in experiment [2] (setting [6]) it was at most 0.3 µM.

Consider `C#Cc1ncoc1C1CN(C(=O)[C@@H]2CC[C@@H]3CCCC[C@H](NC(=O)c4cc5cc(C(F)(F)P(=O)(O)O)ccc5s4)C(=O)N32)C1` [Compound 64, ((2-(((3S,6S,10aS)-3-(3-(4-ethynyloxazol-5-yl)azetidine-1-carbonyl)-5-oxodecahydropyrrolo [1,2-a]azocin-6-yl)carbamoyl)benzo[b]thiophen-5-yl)difluoromethyl) phosphonic acid], for which the IC50 in experiment [1] (setting [5]) was under 0.1 µM; in experiment [2] (setting [6]), 0.3 to 3 µM.

Regarding `C[C@H]1C[C@H]2CC[C@@H](C(=O)N3CC(c4cncnc4N4CCC4)C3)N2C(=O)[C@@H](NC(=O)c2cc3cc(CP(=O)(O)O)ccc3s2)C1` [Compound 678, ((2-(((3S,6S,8R,9aR)-3-(3-(4-(azetidin-1-yl)pyrimidin-5-yl)azetidine-1-carbonyl)-8-methyl-5-oxooctahydro-1H-pyrrolo[1,2-a]azepin-6-yl)carbamoyl)benzo [b]thiophen-5-yl)methyl) phosphonic acid], the values for the IC50 in experiment [1] (setting [3]) and in experiment [2] (setting [4]) were under 0.1 µM and 3 to 30 µM, respectively.

Regarding `C[C@]1(NC(=O)c2cc3cc(C(F)(F)P(=O)(O)O)ccc3s2)CCCC[C@H]2CC[C@@H](C(=O)N3C[C@H](c4ccccc4)[C@@H](C#N)C3)N2C1=O` (relative stereo) [Compound 84, ((2-(((3S,6S,10aS)-3-(rel-(trans)-3-cyano-4-phenylpyrrolidine-1-carbonyl)-6-methyl-5-oxodecahydropyrrolo [1,2-a]azocin-6-yl)carbamoyl)benzo[b]thiophen-5-yl)difluoromethyl) phosphonic acid], the IC50 in experiment [1] (setting [5]) was in the range of 0.1 to 1 µM; in experiment [2] (setting [6]) it was 0.3 to 3 µM.

Consider `O=C(N[C@H]1CC/C=C\[C@H]2CC[C@@H](C(=O)N3CC(c4cccnc4)C3)N2C1=O)c1cc2cc(C(F)(F)P(=O)(O)O)ccc2s1` [Compound 26, (difluoro(2-(((3S,6S,10aR,Z)-5-oxo-3-(3-(pyridin-3-yl)azetidine-1-carbonyl)-1,2,3,5,6,7,8,10a-octahydropyrrolo[1,2-a]azocin-6-yl)carbamoyl)benzo[b]thiophen-5-yl)methyl) phosphonic acid], for which the IC50 in experiment [1] (setting [5]) was under 0.1 µM; in experiment [2] (setting [6]), 0.3 to 3 µM.

With `Cn1cc(C2CN(C(=O)[C@@H]3CC[C@@H]4CCC[C@H](NC(=O)c5cc6cc(C(F)P(=O)(O)O)ccc6s5)C(=O)N43)C2)c(F)n1` (stereo partly drawn) [Compound 715, (fluoro(2-(((3S,6S,9aS)-3-(3-(3-fluoro-1-methyl-1H-pyrazol-4-yl)azetidine-1-carbonyl)-5-oxooctahydro-1H-pyrrolo[1,2-a]azepin-6-yl)carbamoyl)benzo [b]thiophen-5-yl)methyl) phosphonic acid], the IC50 lay within 0.1 to 1 µM in experiment [1] (setting [3]) and 3 to 30 µM in experiment [2] (setting [4]).

In the case of `COC[C@@H]1CCN1c1ncncc1C1CN(C(=O)[C@@H]2CC[C@@H]3CCC[C@H](NC(=O)c4cc5cc([C@H](F)P(=O)(O)O)ccc5s4)C(=O)N32)C1` (single isomer, unassigned) [Compound 862], the IC50 is under 0.1 µM in experiment [1] (setting [3]) and 3 to 30 µM in experiment [2] (setting [4]).

Turning to `COC1(c2cccnc2)CN(C(=O)[C@@H]2CC[C@@H]3CCC[C@H](NC(=O)c4cc5cc(C(F)(F)P(=O)(O)O)ccc5s4)C(=O)N32)C1` [Compound 498, (difluoro(2-(((3S,6S,9aS)-3-(3-methoxy-3-(pyridin-3-yl)azetidine-1-carbonyl)-5-oxooctahydro-1H-pyrrolo[1,2-a]azepin-6-yl)carbamoyl)benzo[b]thiophen-5-yl)methyl)phosphonic acid], the IC50 in experiment [1] (setting [3]) was under 0.1 µM; in experiment [2] (setting [4]) it was 0.3 to 3 µM.

Regarding `N#C[C@H]1CN(C(=O)[C@@H]2CC[C@@H]3CCCC[C@H](NC(=O)c4cc5cc(C(F)(F)P(=O)(O)O)ccc5s4)C(=O)N32)C[C@@H]1C1CCCCC1` (racemic) [Compound 91, ((2-(((3S,6S,10aS)-3-(rel-(trans)-3-cyano-4-cyclohexyl-pyrrolidine-1-carbonyl)-5-oxodecahydropyrrolo [1,2-a]azocin-6-yl)carbamoyl)benzo[b]thiophen-5-yl)difluoromethyl) phosphonic acid], the figures for the IC50 in experiment [1] (setting [5]) and in experiment [2] (setting [6]) were 1 to 10 µM and at most 0.3 µM, respectively.

As to `O=C(N[C@H]1CCCC[C@H]2CC[C@@H](C(=O)N[C@H](CO)Cc3cccnc3)N2C1=O)c1cc2cc(C(F)(F)P(=O)(O)O)ccc2s1` [Compound 725, (difluoro(2-(((3S,6S,10aS)-3-(((S)-1-hydroxy-3-(pyridin-3-yl)propan-2-yl)carbamoyl)-5-oxodecahydropyrrolo [1,2-a]azocin-6-yl)carbamoyl)benzo [b]thiophen-5-yl)methyl) phosphonic acid], the results for the IC50 in experiment [1] (setting [3]) and in experiment [2] (setting [4]) were 0.1 to 1 µM and 3 to 30 µM, respectively.

Take `Cn1cncc(C2CN(C(=O)[C@@H]3CC[C@@H]4CCC[C@H](NC(=O)c5cc6cc(C(F)P(=O)(O)O)ccc6s5)C(=O)N43)C2)c1=O` (stereo partly drawn) [Compound 624, (fluoro(2-(((3S,6S,9aS)-3-(3-(1-methyl-6-oxo-1,6-dihydropyrimidin-5-yl)azetidine-1-carbonyl)-5-oxooctahydro-1H-pyrrolo[1,2-a]azepin-6-yl)carbamoyl)benzo [b]thiophen-5-yl)methyl) phosphonic acid]: the values for the 50% inhibitory concentration (IC50) in experiment [1] (setting [3]) and in experiment [2] (setting [4]) were 1 to 10 µM and 3 to 30 µM, respectively.

For `Cn1ncc(C2CCN(C(=O)[C@@H]3CC[C@@H]4CCCC[C@H](NC(=O)c5cc6cc(C(F)P(=O)(O)O)ccc6s5)C(=O)N43)C2)cc1=O` (stereo partly drawn) [Compound 913, (fluoro(2-(((3S,6S,10aS)-3-(3-(1-methyl-6-oxo-1,6-dihydropyridazin-4-yl)pyrrolidine-1-carbonyl)-5-oxodecahydropyrrolo [1,2-a]azocin-6-yl)carbamoyl)benzo [b]thiophen-5-yl)methyl) phosphonic acid], the IC50 in experiment [1] (setting [3]) lay in the range of 1 to 10 µM; in experiment [2] (setting [4]), 0.3 to 3 µM.

As to `O=C(N[C@H]1CCCC[C@H]2CC[C@@H](C(=O)N3CCC(c4cccnc4)C3)N2C1=O)c1cc2cc(CP(=O)(O)O)ccc2s1` (stereo partly drawn) [Compound 509, ((2-(((3S,6S,10aS)-5-oxo-3-(3-(pyridin-3-yl)pyrrolidine-1-carbonyl)decahydropyrrolo[1,2-a]azocin-6-yl)carbamoyl)benzo[b]thiophen-5-yl)methyl)phosphonic acid], the values for the IC50 in experiment [1] (setting [3]) and in experiment [2] (setting [4]) were 1 to 10 µM and 3 to 30 µM, respectively.

For `C[C@H]1CC[C@H](NC(=O)c2ccc3ccc(CP(=O)(O)O)cc3c2)C(=O)N2[C@H](CC[C@H]2C(=O)N2CC(c3ccccc3)CC23CC3)C1` (stereo partly drawn) [Compound 888, ((7-(((3S,6S,9S,10aR)-9-methyl-5-oxo-3-(6-phenyl-4-azaspiro[2.4]heptane-4-carbonyl)decahydropyrrolo[1,2-a]azocin-6-yl)carbamoyl)naphthalen-2-yl)methyl) phosphonic acid], the values for the IC50 in experiment [1] (setting [3]) and in experiment [2] (setting [4]) were 1 to 10 µM and 0.3 to 3 µM, respectively.

On to `COCC(NC(=O)[C@@H]1CC[C@@H]2CCCC[C@H](NC(=O)c3cc4cc(C(F)(F)P(=O)(O)O)ccc4s3)C(=O)N21)c1c[nH]c2ncccc12` (stereo partly drawn) [Compound 1121, (difluoro(2-(((3S,6S,10aS)-3-((2-methoxy-1-(1H-pyrrolo[2,3-b]pyridin-3-yl)ethyl)carbamoyl)-5-oxodecahydropyrrolo[1,2-a]azocin-6-yl)carbamoyl)benzo[b]thiophen-5-yl)methyl)phosphonic acid], for which the IC50 in experiment [1] (setting [3]) fell in the range of 1 to 10 µM; in experiment [2] (setting [4]) it was 3 to 30 µM.

One may read the IC50 as the concentration at which inhibition is half-maximal.
